Results on two molecules are retold here after patent US10781162B2 (UCL BUSINESS Ltd, priority 2016, dated 2020).

The nature of data set [1]: In vitro dissolution and aqueous solubility study in distilled water. The method, then: The dissolution experiment was carried out in triplicate on both the diethyl tetrathiomolybdate salt and the ammonium tetrathiomolybdate salt.
The procedure of data set [2]: The in vitro dissolution and aqueous solubility behaviour at 25° C. was also investigated for the DEA-TTM salts synthesised by routes A, B and C as outlined in Example 1.5 above (Almac Sciences, Northern Ireland).
Data set [3] can be described thus: H2S gas detection assay (H2S gas release in PBS). As to conditions: for quantity of H2S gas released under standard conditions: PBS, pH 7.4, 37° C., incubation 1 hour, FIG. 12A. The data set is classed as physicochemical. The source says: A, B and C denote the synthetic route of manufacture of DEA-TTM, with respect to FIG. 6.
If the sample is drawn in the latter part of the 10-second bin, the second or third reading may be the highest. A direct correlation ([…], straight line model, r^2=0.992; see FIG. 11) was observed on comparing the peak H2S value against the sum of the washout readings (decay) over time (area under curve, AUC). As the time to washout and the sum of values therein are directly proportional to the peak quantity of gas initially detected, it is appropriate to consider only the peak H2S gas level to determine the total amount of H2S gas release.
Initial testing of DEA-TTM salts A, B and C was carried out under standard conditions (dissolution in PBS, pH 7.4, incubation for 1 hour). […] Acidic conditions are shown to favour sulfide release.

With `[NH4+].[NH4+].[SH-].[SH-].[S]=[Mo]=[S]` [ATTM, ammonium tetrathiomolybdate], in data set [1], the “solubility in distilled water” value is recorded as “ca. 2 mg/ml”. Also, the dissolution time result in data set [1] (distilled water) is “over 1 hour”. Further, in data set [2], the “solubility in water at 25° C.” value was found to be 2 mg/mL. Besides, the “thiol dependence of H2S release (increase, in words)” value in data set [3] (for reference) is listed as “six-fold increase”.

For the molecule `CC[NH2+]CC.CC[NH2+]CC.[S]=[Mo](=[S])([S-])[S-]` [diethylamine tetrathiomolybdate], the entries for the “quantity of H2S gas released under standard conditions” value in data set [3] (listed as salt B) and in data set [3] (listed as salt C) were “released the least H2S gas” and “released the most H2S gas”, respectively.
